Measurements: article PMC8783508, “A novel D-amino acid peptide with therapeutic potential (ISAD1) inhibits aggregation of neurotoxic disease-relevant mutant Tau and prevents Tau toxicity in vitro” (Alzheimer's Research & Therapy, 2022)
Non-standard residues stand in square brackets, D forms with d. Residues, ends and D or L forms follow the SMILES beside them.

What was measured:
Tau^FL-A152T = molecular target: T1, Tau^FL-A152T (Homo sapiens, UniProt P10636, A469T); experiment: Fibrillization of Tau^FL-A152T monitored by ThS assay; format: biochemical; conditions: Tau:peptide = 1:1; 1:5; 1:10
T1 construct: Tau^FL-A152T Full-length Tau mutant A152T
T1 sequence (P10636 1-441 isoform P10636-8 A152T): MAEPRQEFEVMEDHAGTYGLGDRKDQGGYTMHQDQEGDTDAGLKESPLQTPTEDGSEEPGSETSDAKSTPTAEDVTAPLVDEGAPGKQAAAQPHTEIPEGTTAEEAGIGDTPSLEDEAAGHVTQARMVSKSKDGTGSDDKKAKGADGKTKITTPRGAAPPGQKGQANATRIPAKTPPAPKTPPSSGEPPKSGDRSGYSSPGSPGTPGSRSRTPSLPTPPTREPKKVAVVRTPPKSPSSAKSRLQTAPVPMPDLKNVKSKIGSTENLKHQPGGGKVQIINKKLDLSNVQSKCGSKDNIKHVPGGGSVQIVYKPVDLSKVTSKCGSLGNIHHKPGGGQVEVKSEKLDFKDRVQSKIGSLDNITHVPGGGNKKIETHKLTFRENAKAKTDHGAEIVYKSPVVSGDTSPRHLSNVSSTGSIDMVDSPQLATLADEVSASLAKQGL
Protocol: For Tau fibrillization inhibition assays, 10 μM Tau mutant protein (Tau^RDΔK, Tau^FLΔK, Tau^FL-A152T, Tau^FL-P301L) was incubated in BES buffer (N,N-bis(2-hydroxyethyl)-2-aminoethanesulfonic acid, pH 7) in the presence of 2.5 μM heparin at 37 °C for 24 h with and without novel D-peptides (ISAD1 and ISAD1rev) at different concentrations (1 nM to 200 μM). Final concentration of 20 μM ThS was used for monitoring fibrillization. The assay was performed with 40-μl sample volume per well in a 384-well microtiter plate (Thermo LabSystems, Dreieich, Germany). The fibrillization of Tau was monitored by ThS and the relative fluorescence intensity of ThS was read out at 440 excitation/521 emission nm in a Tecan micro titer plate reader (Tecan, Männedorf, Switzerland).

[1] = DLS of D-peptides alone with heparin; format: physicochemical; conditions: 100 μM D-peptide, 2.5 µM heparin 16000, 24 hours
Protocol: After the ThS assay (end time point, 24 h), the samples were used for DLS measurements. Twenty microliters of the sample was placed in a quartz batch cuvette (ZEN2112) and the measurement was performed at 25 °C in a Zetasizer Nano S instrument (Malvern Instruments, Herrenberg, Germany). The sample was thermally equilibrated at 25 °C for 2 min. The mean value of the intensities of an individual sample was determined over 3 measurements with 15 runs each. Analysis and averaging of the collected data were performed with the Zetasizer software 7.11 (Malvern Instruments, Herrenberg, Germany) and the result is represented as a volume graph. Tau^RDΔK fibrils (Tau+heparin) formed in the absence of D-peptides was used as a positive control.
100 μM of D-peptides and 2.5 µM of heparin 16000 (H16K) were incubated together for 24 hours and measured by DLS.

N2a-Tau^RDΔK cells [2] = experiment: LDH release with the peptides alone; format: cell-based; conditions: 25, 50, 100, 250 μM peptide, 24 h, n = 3
Protocol: N2a cells expressing Tau^RDΔK were plated on poly D-lysine-coated 96-well plates with a density of 25,000 cells/well. At 70 to 80% confluence, the cells were treated for 24 h with various concentrations of D-peptides (25, 50, 100, and 250 μM) or Tau^RDΔK (10 μM final concentration) in the presence of ISAD1 and ISAD1rev (100 μM final concentration). The ability of D-peptides to neutralize the toxicity of Tau^RDΔK oligomers/fibrils was investigated by measuring the amount of released LDH (Roche Diagnostics, Mannheim, Germany). Therefore, 50 μL of each well was transferred to a fresh 96-well plate and 50 μL of reagent was added followed by a 30-min incubation period at RT. Finally, 50 μL of stop solution (1 N HCl) was added and absorbance was recorded at 492 nm (TECAN spectrofluorometer, Männedorf, Switzerland). Absorbance values were corrected by background values and the percentage of LDH release was calculated.

N2a-Tau^RDΔK cells [3] = experiment: MTT, toxicity of externally added Tau^RDΔK aggregates; format: cell-based; conditions: Tau^RDΔK pre-incubated with peptide 1:10, 24 h, 37 °C; 10 μM Tau, 100 μM peptide final, 24 h on cells, n = 3
Protocol: Cell viability was analyzed in accordance with the manufacturer’s protocol (Roche Diagnostics, Mannheim, Germany; cell proliferation kit II (MTT)). This assay is based on the cleavage of the yellow tetrazolium salt MTT into purple formazan dye by metabolic active cells. The color changes only in viable cells and can be directly quantified using a scanning multiwell spectrophotometer. In all experiments, the cells were grown as described previously. The cells (25,000 cells/well or 80% confluence) were plated on poly D-lysine-coated 96-well plates (Greiner Bio-One GmbH, Frickenhausen, Germany) for stronger attachment from overnight to 24 h at 37 °C. Fibrillized Tau^RDΔK was generated by incubating 200 μM Tau^RDΔK in BES buffer at 37 °C for 24 h in the presence of 2 mM D-peptides (Tau^RDΔK:peptide = 1:10). Successful fibrillization was verified using ThS (5 μM Tau^RDΔK, 10 μM ThS) measurement. The aggregated Tau^RDΔK (10 μM final concentration), Tau^RDΔK (10 μM) + peptide (100 μM) samples (ISAD1 and ISAD1rev), buffer only (negative control, set to 100% cell viability), and TritonX-100 (2%, cytotoxic agent, positive control) were incubated on N2a-Tau^RDΔK cells (100 μl solution) for another 24 h. The cell viability was measured in accordance with the manufacturer’s protocol.

N2a-Tau^RDΔK cells [4] = experiment: ROS measurement (DCF), externally added Tau^RDΔK aggregates; format: cell-based; conditions: 10 μM Tau, 100 μM peptide final, pre-incubated, 30 min, n = 3
Protocol: Toxic Tau oligomers and fibrils can induce the production of superoxides and peroxy radicals in cells which can be measured with fluorescent dye dichlorodihydrofluorescein (DCF). N2a-Tau^RDΔK cells were plated on D-lysine-coated 96-well plates. At 70 to 80% confluence, the cells were washed once with warm PBS and then incubated with 20 μM of DCF (Abcam, Cambridge, UK) diluted in 1X dilution buffer for 30 min at 37 °C. After 30 min, the cells were washed once with 1X PBS. After washing, the cells were incubated with desired concentrations of different samples (10 μM oligomers/fibrils ± treated with 100 μM D-peptides or controls) for 30 min. The cytotoxic agent TBHP (tert-butylhydroperoxide) was used as the positive control. The fluorescence intensity was measured using a spectrofluorometer (Tecan, Männedorf, Switzerland; excitation at 485 nm and emission at 535 nm).

N2a-Tau^RDΔK cells [5] = experiment: MTT, intracellularly expressed Tau^RDΔK (Dox induced); format: cell-based; conditions: 1 μg/ml doxycycline, 72 h, n = 2
Protocol: After the N2a-Tau^RDΔK cells reached the desired confluence (25,000 cells/well or 80%), intracellular Tau^RDΔK expression was induced by the addition of 1 μg/ml Dox. The cells were plated on poly D-lysine-coated 96-well plates (Greiner Bio-One GmbH, Frickenhausen, Germany) and treated with ISAD1 and ISAD1rev in a concentration range of 25 to 250 μM. TritonX-100 (2%) was used as a positive control. The incubation and Tau^RDΔK expression time was 72 h. Following incubation, cell viability was studied by measuring MTT and LDH release in accordance with the manufacturer’s protocol.

CC(C)C[C@@H](NC(=O)[C@@H](CO)NC(=O)[C@@H](CC(C)C)NC(=O)[C@H](NC(=O)[C@@H](CC(=O)O)NC(=O)[C@@H](C)NC(=O)[C@@H](C)NC(=O)[C@H](N)CO)[C@H](C)O)C(=O)N[C@H](CCCCN)C(=O)N[C@H](Cc1ccccc1)C(=O)N[C@@H](C(=O)N[C@H](CO)C(=O)O)C(C)C [ISAD1rev] (H-[dS][dA][dA][dD][dT][dL][dS][dL][dK][dF][dV][dS]-OH; N-terminus and C-terminus assumed)
Inhibition of Tau^FL-A152T fibrillization, in words (Tau^FL-A152T): weak inhibitory effects
Particle size of peptide alone in the presence of heparin (DLS) [1]: < 2 nm
Cytotoxicity, LDH release (N2a-Tau^RDΔK cells [2]): do not induce toxic effects
Effect on toxicity of Tau aggregates, cell viability (MTT) (N2a-Tau^RDΔK cells [3]): preserving cell viability
Effect on toxicity of Tau aggregates, ROS level (N2a-Tau^RDΔK cells [4]): reducing intracellular ROS levels
Cell viability at 50 μM peptide (N2a-Tau^RDΔK cells [5]): no increase in cell viability
